Source: ChEMBL document CHEMBL4765432, “Design and synthesis of novel Flavone-based histone deacetylase inhibitors antagonizing activation of STAT3 in breast cancer” (Eur J Med Chem, 2020)
Calls of active or inactive are those of the source. The calls are words filed in the database; no cut-off is given here.

Columns and labels:
[1] = Inhibition of HDAC in human HeLa cell extracts assessed as inhibition of substrate deacetylation using Boc-Lys (q-Ac)-AMC as substrate incubated for 10 mins followed by substrate addition and measured after 30 mins by fluorescence based assay; format: tissue-based
MDA-MB-231 [2] = test: Induction of apoptosis in human MDA-MB-231 cells assessed as late apoptotic cells at 10 uM incubated for 72 hrs by annexinV-FITC and PI staining based flow cytometry analysis (reference value: 3.79 %); format: functional
4T1 [3] = test: Induction of apoptosis in mouse 4T1 cells assessed as viable cells at 10 uM incubated for 72 hrs by annexinV-FITC and PI staining based flow cytometry analysis (reference value: 91.1 %); format: functional; conditions: read-out: Activity
MDA-MB-231 [4] = test: Induction of apoptosis in human MDA-MB-231 cells assessed as early apoptotic cells at 10 uM incubated for 72 hrs by annexinV-FITC and PI staining based flow cytometry analysis (reference value: 5.57 %); format: functional
4T1 [5] = test: Induction of apoptosis in mouse 4T1 cells assessed as late apoptotic cells at 10 uM incubated for 72 hrs by annexinV-FITC and PI staining based flow cytometry analysis (reference value: 2.24 %); format: functional
MDA-MB-231 [6] = test: Induction of apoptosis in human MDA-MB-231 cells assessed as viable cells at 10 uM incubated for 72 hrs by annexinV-FITC and PI staining based flow cytometry analysis (reference value: 90.3 %); format: functional; conditions: read-out: Activity
4T1 [7] = test: Induction of apoptosis in mouse 4T1 cells assessed as necrotic cells at 10 uM incubated for 72 hrs by annexinV-FITC and PI staining based flow cytometry analysis (reference value: 5.00 %); format: functional
4T1 [8] = test: Induction of apoptosis in mouse 4T1 cells assessed as early apoptotic cells at 10 uM incubated for 72 hrs by annexinV-FITC and PI staining based flow cytometry analysis (reference value: 1.65 %); format: functional
MDA-MB-231 [9] = test: Induction of apoptosis in human MDA-MB-231 cells assessed as necrotic cells at 10 uM incubated for 72 hrs by annexinV-FITC and PI staining based flow cytometry analysis (reference value: 0.330 %); format: functional
MDA-MB-231 [10] = test: Induction of apoptosis in human MDA-MB-231 cells assessed as early apoptotic cells at 5 uM incubated for 72 hrs by annexinV-FITC and PI staining based flow cytometry analysis (reference value: 5.57 %); format: functional
[11] = Genotoxicity in Salmonella typhimurium TA1535 by Ames test; format: toxicity; conditions: salmonella enterica subsp. enterica serovar typhimurium
4T1 [12] = test: Induction of apoptosis in mouse 4T1 cells assessed as late apoptotic cells at 5 uM incubated for 72 hrs by annexinV-FITC and PI staining based flow cytometry analysis (reference value: 2.24 %); format: functional
[13] = Genotoxicity in Salmonella typhimurium TA100 by Ames test; format: toxicity; conditions: salmonella enterica subsp. enterica serovar typhimurium
MDA-MB-231 [14] = test: Induction of cell cycle arrest in human MDA-MB-231 cells assessed as G0/G1 phase accumulation at 2 uM incubated for 24 hrs by PI staining based flow cytometry analysis (reference value: 29.10 %); format: functional
MDA-MB-231 [15] = test: Induction of apoptosis in human MDA-MB-231 cells xenografted in BALB/c mouse assessed as increase in caspase-3 cleavage by immunohistochemistry method; format: functional, cell-based
[16] = Genotoxicity in Salmonella typhimurium TA1537 by Ames test; format: toxicity; conditions: salmonella enterica subsp. enterica serovar typhimurium
4T1 [17] = test: Induction of apoptosis in mouse 4T1 cells assessed as early apoptotic cells at 5 uM incubated for 72 hrs by annexinV-FITC and PI staining based flow cytometry analysis (reference value: 1.65 %); format: functional
MDA-MB-231 [18] = test: Induction of cell cycle arrest in human MDA-MB-231 cells assessed as G2/M phase accumulation at 2 uM incubated for 24 hrs PI staining based by flow cytometry analysis (reference value: 27.08 %); format: functional
[19] = biological target: Signal transducer and activator of transcription 3 (Homo sapiens) (UniProt P40763); test: Inhibition of STAT3 in human MDA-MB-231 cells assessed as reduction in STAT-3 phosphorylation at 2.5 to 40 uM incubated for 8 hrs by Western blot analysis; format: cell-based; conditions: dose 2.5-40 µM
HepG2 = test: Cytotoxicity against human HepG2 cells assessed as reduction in cell viability incubated for 48 hrs by MTT assay; format: functional, cell-based; conditions: HepG2, 48 h
4T1 [20] = test: Induction of apoptosis in mouse 4T1 cells implanted in BALB/c mouse assessed as increase in caspase-3 cleavage by immunohistochemistry method; format: functional, cell-based
4T1 [21] = test: Induction of apoptosis in mouse 4T1 cells assessed as viable cells at 5 uM incubated for 72 hrs by annexinV-FITC and PI staining based flow cytometry analysis (reference value: 91.1 %); format: functional; conditions: read-out: Activity
[22] = Genotoxicity in Salmonella typhimurium TA98 by Ames test; format: toxicity; conditions: salmonella enterica subsp. enterica serovar typhimurium
4T1 [23] = test: Induction of apoptosis in mouse 4T1 cells assessed as necrotic cells at 5 uM incubated for 72 hrs by annexinV-FITC and PI staining based flow cytometry analysis (reference value: 5.00 %); format: functional
4T1 [24] = test: Induction of cell cycle arrest in mouse 4T1 cells assessed as G2/M phase accumulation at 2 uM incubated for 24 hrs by PI staining based flow cytometry analysis (reference value: 38.51 %); format: functional
4T1 [25] = test: Induction of cell cycle arrest in mouse 4T1 cells assessed as S phase accumulation at 2 uM incubated for 24 hrs by PI staining based flow cytometry analysis (reference value: 19.43 %); format: functional
[26] = Genotoxicity in Salmonella typhimurium TA97a by Ames test; format: toxicity; conditions: salmonella enterica subsp. enterica serovar typhimurium
MDA-MB-231 [27] = test: Induction of apoptosis in human MDA-MB-231 cells assessed as necrotic cells at 5 uM incubated for 72 hrs by annexinV-FITC and PI staining based flow cytometry analysis (reference value: 0.330 %); format: functional
4T1 [28] = test: Induction of cell cycle arrest in mouse 4T1 cells assessed as G0/G1 phase accumulation at 2 uM incubated for 24 hrs by PI staining based flow cytometry analysis (reference value: 42.06 %); format: functional
MDA-MB-231 [29] = test: Induction of apoptosis in human MDA-MB-231 cells assessed as late apoptotic cells at 5 uM incubated for 72 hrs by annexinV-FITC and PI staining based flow cytometry analysis (reference value: 3.79 %); format: functional
MDA-MB-231 [30] = test: Induction of cell cycle arrest in human MDA-MB-231 cells assessed as S phase accumulation at 2 uM incubated for 24 hrs by PI staining based flow cytometry analysis (reference value: 43.82 %); format: functional
T47D = test: Cytotoxicity against human T47D cells assessed as reduction in cell viability incubated for 48 hrs by MTT assay; format: functional, cell-based
MDA-MB-231 [31] = test: Induction of apoptosis in human MDA-MB-231 cells assessed as viable cells at 5 uM incubated for 72 hrs by annexinV-FITC and PI staining based flow cytometry analysis (reference value: 90.3 %); format: functional; conditions: read-out: Activity
[32] = Genotoxicity in Salmonella typhimurium WP2 uvrA (pKM 101) by Ames test; format: toxicity; conditions: salmonella enterica subsp. enterica serovar typhimurium
[33] = Toxicity in C57BL/6 mouse assessed death of organism at 50 mg/kg, po observed for 20 days; format: organism-based; conditions: in vivo, 480 h, time 20 day
[34] = biological target: Signal transducer and activator of transcription 3 (Homo sapiens) (UniProt P40763); test: Inhibition of STAT3 in human MDA-MB-231 cells assessed as reduction in STAT-3 phosphorylation incubated for 8 hrs by Western blot analysis; format: cell-based; conditions: dose 2.5-20 µM
[35] = Toxicity in C57BL/6 mouse assessed death of organism at 300 mg/kg, ip observed for 24 hrs; format: organism-based; conditions: in vivo

Chain of Signal transducer and activator of transcription 3 (Homo sapiens) (P40763 whole entry): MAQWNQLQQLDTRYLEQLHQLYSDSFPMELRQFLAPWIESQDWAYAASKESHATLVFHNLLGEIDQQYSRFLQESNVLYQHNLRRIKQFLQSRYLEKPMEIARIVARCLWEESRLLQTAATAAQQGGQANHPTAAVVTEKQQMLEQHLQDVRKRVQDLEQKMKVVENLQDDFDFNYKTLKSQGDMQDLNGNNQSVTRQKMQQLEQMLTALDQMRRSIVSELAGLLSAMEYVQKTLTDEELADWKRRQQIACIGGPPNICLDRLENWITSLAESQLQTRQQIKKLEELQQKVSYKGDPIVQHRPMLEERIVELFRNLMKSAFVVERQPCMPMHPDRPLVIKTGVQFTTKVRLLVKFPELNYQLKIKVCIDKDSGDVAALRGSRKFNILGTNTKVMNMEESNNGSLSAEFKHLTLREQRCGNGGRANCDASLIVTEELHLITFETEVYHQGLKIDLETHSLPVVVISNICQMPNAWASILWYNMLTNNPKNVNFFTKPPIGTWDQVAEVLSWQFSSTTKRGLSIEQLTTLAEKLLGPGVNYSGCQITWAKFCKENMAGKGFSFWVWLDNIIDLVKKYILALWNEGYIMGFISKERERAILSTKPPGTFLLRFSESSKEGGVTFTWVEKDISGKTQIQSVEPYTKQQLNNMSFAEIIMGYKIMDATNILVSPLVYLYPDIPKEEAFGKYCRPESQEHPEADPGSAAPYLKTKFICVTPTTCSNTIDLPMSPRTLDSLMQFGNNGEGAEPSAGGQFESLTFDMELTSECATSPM

## COc1ccc(-c2coc3cc(OCCCCCCCC(=O)NO)cc(O)c3c2=O)cc1
[1]
  IC50: > 10 µM

## CN(C)CCCOc1ccc(-c2cc(=O)c3c(O)cc(OCCCCCCC(=O)NO)cc3o2)cc1
[1]
  IC50: 0.025 µM

## O=C(CCCCCCCOc1cc(O)c2c(=O)cc(-c3ccccc3)oc2c1)NO
[1]
  IC50: 0.402 µM

## O=C(CCCCCCCOc1cc(O)c2c(=O)cc(-c3ccc(O)cc3)oc2c1)NO
[1]
  IC50: 0.615 µM

## COc1ccc(-c2coc3cc(OCCCCCCCC(=O)NO)ccc3c2=O)cc1
[1]
  IC50: > 10 µM

## O=C(CCCOc1cc(O)c2c(=O)cc(-c3ccccc3)oc2c1)NO
[1]
  IC50: > 10 µM

## O=C(COc1cc(O)c2c(=O)cc(-c3ccccc3)oc2c1)NO
[1]
  IC50: > 10 µM

## CN(C)CCOc1ccc(-c2cc(=O)c3c(O)cc(OCCCCCCCC(=O)NO)cc3o2)cc1
[1]
  IC50: 1.68 µM

## O=C(CCCCCOc1cc(O)c2c(=O)cc(-c3ccccc3)oc2c1)NO
[1]
  IC50: 0.053 µM

## O=C(CCCCCOc1cc(O)c2c(=O)cc(-c3ccc(OCCN4CCCC4)cc3)oc2c1)NO
[1]
  IC50: > 10 µM

## COc1ccc(-c2cc(=O)c3c(O)cc(OCCCCCCC(=O)NO)cc3o2)cc1
[1]
  IC50: 5.25 µM

## COc1ccc(-c2cc(=O)c3c(O)cc(OCCCCCCCC(=O)NO)cc3o2)cc1
[1]
  IC50: > 10 µM

## O=C(CCCCCOc1cc(O)c2c(=O)cc(-c3ccc(OCCN4CCCCC4)cc3)oc2c1)NO
[1]
  IC50: 0.133 µM

## COc1ccc(-c2coc3cc(OCCCCCC(=O)NO)cc(O)c3c2=O)cc1
[1]
  IC50: > 10 µM

## O=C(CCCCCOc1cc(O)c2c(=O)cc(-c3ccc(OCCN4CCOCC4)cc3)oc2c1)NO
[1]
  IC50: 0.59 µM

## COc1ccc(-c2coc3cc(OCCCCCCC(=O)NO)ccc3c2=O)cc1
[1]
  IC50: > 10 µM

## O=c1cc(-c2ccc(O)cc2)oc2cc(O)cc(O)c12 [APIGENIN]
MDA-MB-231 [2]
  Activity: 1.59%
4T1 [3]
  viability at 10 µM: 89.1%
MDA-MB-231 [4]
  Activity: 8.28%
4T1 [5]
  Activity: 3.22%
MDA-MB-231 [6]
  viability at 10 µM: 90.1%
4T1 [7]
  Activity: 4.45%
[1]
  IC50: > 10 µM
4T1 [8]
  Activity: 3.22%
MDA-MB-231 [9]
  Activity: 0.02%

## O=C(CCCCCCC(=O)Nc1ccccc1)NO [VORINOSTAT]
MDA-MB-231 [10]
  Activity: 20.1%
[11]
  Activity: Non-Toxic
4T1 [12]
  Activity: 13.4%
[13]
  Activity: Toxic
MDA-MB-231 [14]
  Activity: 72.99%
MDA-MB-231 [15]
  Activity: Active
[16]
  Activity: Non-Toxic
4T1 [17]
  Activity: 48.9%
MDA-MB-231 [18]
  Activity: 18.69%
[19]
  inhibition: inactive
HepG2
  IC50: 2.27 µM
4T1 [20]
  Activity: Active
4T1 [21]
  viability at 5 µM: 35.6%
[22]
  Activity: Non-Toxic
4T1 [23]
  Activity: 2.08%
4T1 [24]
  Activity: 22.68%
4T1 [25]
  Activity: 23.63%
[26]
  Activity: Toxic
MDA-MB-231 [27]
  Activity: 0.356%
4T1 [28]
  Activity: 53.69%
MDA-MB-231 [29]
  Activity: 25.8%
MDA-MB-231 [30]
  Activity: 8.32%
T47D
  IC50: 2.24 µM
MDA-MB-231 [31]
  viability at 5 µM: 53.8%
[32]
  Activity: Non-Toxic

## CN(C)CCCOc1ccc(-c2cc(=O)c3c(O)cc(OCCCCCC(=O)NO)cc3o2)cc1.Cl
[33]
  Activity: Toxic
[34]
  inhibition: Dose-dependent effect
[1]
  IC50: 0.065 µM
[35]
  Activity: Toxic

## O=C(CCCCCCOc1cc(O)c2c(=O)cc(-c3ccccc3)oc2c1)NO
[1]
  IC50: 0.088 µM

## CN(C)CCCOc1ccc(-c2cc(=O)c3c(O)cc(OCCCCCCCC(=O)NO)cc3o2)cc1
[1]
  IC50: 0.053 µM

## O=C(CCCCCCOc1cc(O)c2c(=O)cc(-c3ccc(O)cc3)oc2c1)NO
[1]
  IC50: 0.93 µM

## COc1ccc(-c2cc(=O)c3c(O)cc(OCCCCCC(=O)NO)cc3o2)cc1
[1]
  IC50: 4530 µM

## CN(C)CCOc1ccc(-c2cc(=O)c3c(O)cc(OCCCCCCC(=O)NO)cc3o2)cc1
[1]
  IC50: 0.732 µM

## COc1ccc(-c2coc3cc(OCCCCCCC(=O)NO)cc(O)c3c2=O)cc1
[1]
  IC50: > 10 µM

## COc1ccc(-c2coc3cc(OCCCCCC(=O)NO)ccc3c2=O)cc1
[1]
  IC50: 0.71 µM

## O=C(CCCCOc1cc(O)c2c(=O)cc(-c3ccccc3)oc2c1)NO
[1]
  IC50: 3.33 µM

## CN1CCN(CCOc2ccc(-c3cc(=O)c4c(O)cc(OCCCCCC(=O)NO)cc4o3)cc2)CC1
[1]
  IC50: 0.225 µM

## O=C(CCCCCOc1cc(O)c2c(=O)cc(-c3ccc(O)cc3)oc2c1)NO
[1]
  IC50: 0.297 µM

## COC(=O)CCCCCOc1cc(O)c2c(=O)cc(-c3ccc(OCCN(C)C)cc3)oc2c1
[19]
  inhibition: Active
